# Test system: insulin receptor (IR)
# Test: Phosphotyrosine enzyme linked immunosorbent assay: pTyr on insulin receptor in NIH3T3 cells over-expressing human IR (H25 cells)
# Conditions: Table III; at 50 μM
row,SMILES,increase (PTYR)
1,"CC(=O)Nc1ccc(-n2nnnc2Sc2ncc([N+](=O)[O-])s2)cc1 [Compound 31, 1-(4-Acetamidophenyl)-5-[(5-nitrothiazol-2-yl)mercapto]tetrazole]",49%

# Same assay, conditions: Table III; at 100 μM
row,SMILES,increase in PTYR
1,"Nc1ccc(-n2nnnc2Sc2ncc([N+](=O)[O-])s2)cc1 [Compound 32, 1-(4-Aminophenyl)-5-[(5-nitrothiazol-2-yl)mercapto]tetrazole]",40%
2,"COc1ccc2nc(Sc3ncc([N+](=O)[O-])s3)[nH]c2c1 [Compound 45, 5-Methoxy-2-[(5-nitrothiazol-2-yl)mercapto]benzimidazole]",46%

# Same assay, conditions: from 15.6 μM to 250 μM
row,SMILES,dose dependence of the increase in the pTyr level
1,"O=[N+]([O-])c1cnc(Nc2nc(-c3ccc(Cl)cc3)n[nH]2)s1 [Compound 10, 3-(4-chlorophenyl)-5-[(5-nitrothiazol-2-yl)amino]-1,2,4-triazole]",dependent on the dose

# Same assay, conditions: read-out: ACTIVITY EC50
row,SMILES,EC50
1,"CCNC(=O)n1c(Sc2ncc([N+](=O)[O-])s2)nc2cc([N+](=O)[O-])ccc21 [Compound 18, 1-Ethylaminocarbonyl-5-nitro-2-[(5-nitrothiazol-2-yl)mercapto]benzimidazole]",16 µM
2,"O=[N+]([O-])c1cnc(Sc2nnc(Sc3nnc(SCCCl)s3)s2)s1 [Compound 26, 2-(2-Chloroethylmercapto)-5-[[2-[(5-nitrothiazol-2-yl)mercapto]-1,3,4-thiadiazol-5-yl]mercapto]-1,3,4-thiadiazole]",46 µM

# Same assay, conditions: read-out: ACTIVITY EC50; Table III; […]
row,EC50,SMILES
1,27 µM,"O=[N+]([O-])c1cnc(Sc2nccn2Cc2ccccc2)s1 [Compound 16, 1-Benzyl-2-[(5-nitrothiazol-2-yl)mercapto]imidazole]"
2,> 25 µM,"Cc1ccc(S(=O)(=O)n2c(Sc3ncc([N+](=O)[O-])s3)nc3ccccc32)cc1 [Compound 17, 1-Tosyl-2-[(5-nitrothiazol-2-yl)mercapto]benzimidazole]"
3,> 100 µM,Cc1nc2nc(Sc3ncc([N+](=O)[O-])s3)[nH]c2cc1Br [Compound 19]
4,15 µM,O=[N+]([O-])c1cnc(Sc2nc3ncccc3[nH]2)s1 [Compound 20]
5,> 50 µM,"O=C(CN(c1ccccc1)c1nnc(Sc2ncc([N+](=O)[O-])s2)s1)Nc1cccc(C(F)(F)F)c1 [Compound 21, 2-[N-Phenyl-N-[3-(trifluoromethyl)phenylaminocarbonylmethyl]amino]-5-[(5-nitrothiazol-2-yl)mercapto]-1,3,4-thiadiazole]"
6,29 µM,"O=CNc1nnc(Sc2ncc([N+](=O)[O-])s2)s1 [Compound 22, 2-Formamido-5-[(5-nitrothiazol-2-yl)mercapto]-1,3,4-thiadiazole]"
7,> 100 µM,"CCCCSc1nnc(Sc2ncc([N+](=O)[O-])s2)s1 [Compound 23, 2-n-Butylmercapto-5-[(5-nitrothiazol-2-yl)mercapto]-1,3,4-thiadiazole]"
8,> 100 µM,"O=C(CSc1nnc(Sc2ncc([N+](=O)[O-])s2)s1)Oc1ccccc1 [Compound 24, 2-[(5-Nitrothiazol-2-yl)mercapto]-5-[(phenoxycarbonyl)methylmercapto]-1,3,4-thiadiazole]"
9,48 µM,"CCOC(=O)CSc1nnc(Sc2nnc(Sc3ncc([N+](=O)[O-])s3)s2)s1 [Compound 25, 2-[(Ethoxycarbonyl)methylmercapto]-5-[[2-[(5-nitrothiazol-2-yl)mercapto]-1,3,4-thiadiazol-5-yl]mercapto]-1,3,4-thiadiazole]"
10,96 µM,"O=[N+]([O-])c1cnc(Sc2nnc(Sc3nnc(Sc4cc(O)ccc4O)s3)s2)s1 [Compound 27, 2-(2,5-Dihydroxyphenylmercapto)-5-[[2-[(5-nitrothiazol-2-yl)mercapto]-1,3,4-thiadiazol-5-yl]mercapto]-1,3,4-thiadiazole]"
11,35 µM,"CCSc1nnc(Sc2ncc([N+](=O)[O-])s2)s1 [Compound 28, 2-Ethylmercapto-5-[(5-nitrothiazol-2-yl)mercapto]-1,3,4-thiadiazole]"
12,> 100 µM,"Nc1ccc(-n2nnnc2Sc2ncc([N+](=O)[O-])s2)cc1 [Compound 29, 1-(4-Aminophenyl)-5-[(5-nitrothiazol-2-yl)mercapto]tetrazole]"
13,32 µM,"C=CCn1nnnc1Sc1ncc([N+](=O)[O-])s1 [Compound 30, 1-Allyl-5-[(5-nitrothiazol-2-yl)mercapto]tetrazole]"
14,> 100 µM,"CC(=O)Nc1ccc(-n2nnnc2Sc2ncc([N+](=O)[O-])s2)cc1 [Compound 31, 1-(4-Acetamidophenyl)-5-[(5-nitrothiazol-2-yl)mercapto]tetrazole]"
15,> 100 µM,"NS(=O)(=O)c1ccc(-n2nnnc2Sc2ncc([N+](=O)[O-])s2)cc1 [Compound 33, 1-(4-Aminosulfonylphenyl)-5-[(5-nitrothiazol-2-yl)mercapto]tetrazole]"
16,33 µM,"CCn1nnnc1Sc1ncc([N+](=O)[O-])s1 [Compound 34, 1-Ethyl-5-[(5-nitrothiazol-2-yl)mercapto]tetrazole]"
17,> 25 µM,"O=c1[nH]c(Sc2ncc([N+](=O)[O-])s2)nc2ccccc12 [Compound 35, 2-[(5-Nitrothiazol-2-yl)mercapto]-4-quinazolone]"
18,> 100 µM,"Cn1c(=O)n(C)c2nc(Sc3ncc([N+](=O)[O-])s3)ncc21 [Compound 36, 1,3-Dimethyl-5-[(5-nitrothiazol-2-yl)mercapto]imidazo[4,5-d]pyrimid-2-one]"
19,> 100 µM,O=[N+]([O-])c1cnc(Sc2nc(O)c3nc(O)[nH]c3n2)s1 [Compound 37]
20,15.6 µM,"Nc1nnc(Sc2ncc([N+](=O)[O-])s2)s1 [Compound 38, 2-Amino-5-[(5-nitrothiazol-2-yl)mercapto]-1,3,4-thiadiazole]"
21,17.5 µM,"O=[N+]([O-])c1cnc(Sc2nc3c([nH]2)CC(Cl)C(Cl)C3)s1 (stereo not shown) [Compound 39, 5,6-Dichloro-2-[(5-nitrothiazol-2-yl)mercapto]cyclohexoimidazole]"
22,8.6 µM,"O=[N+]([O-])c1cnc(Sc2nc3cc(C(F)(F)F)cc(Br)c3[nH]2)s1 [Compound 40, 4-Bromo-2-[(5-nitrothiazol-2-yl)mercapto]-6-(trifluoromethyl)benzimidazole]"

row,EC50,SMILES
1,10 µM,"O=[N+]([O-])c1cnc(Sc2nc3cc(C(F)(F)F)cc(Cl)c3[nH]2)s1 [Compound 41, 4-Chloro-2-[(5-nitrothiazol-2-yl)mercapto]-6-(trifluoromethyl)benzimidazole]"
2,14 µM,"COC(=O)c1cnc(Sc2ncc([N+](=O)[O-])s2)n1C [Compound 42, 4-Methoxycarbonyl-3-methyl-2-[(5-nitrothiazol-2-yl)mercapto]imidazole]"
3,8.5 µM,"CCOC(=O)c1c[nH]c(Sc2ncc([N+](=O)[O-])s2)n1 [Compound 43, 4-Ethoxycarbonyl-2-[(5-nitrothiazol-2-yl)mercapto]imidazole]"
4,7.6 µM,"CCOC(=O)c1cnc(Sc2ncc([N+](=O)[O-])s2)n1C [Compound 44, 4-Ethoxycarbonyl-3-methyl-2-[(5-nitrothiazol-2-yl)mercapto]imidazole]"
5,9.7 µM,"CCOc1ccc(OCC)c2[nH]c(Sc3ncc([N+](=O)[O-])s3)nc12 [Compound 46, 4,7-Diethoxy-2-[(5-nitrothiazol-2-yl)mercapto]benzimidazole]"
6,15.7 µM,"CCOC(=O)c1nc(Sc2ncc([N+](=O)[O-])s2)n(C2CCCCC2)c1C(=O)OCC [Compound 47, 1-Cyclohexyl-4,5-di(ethoxycarbonyl)-2-[(5-nitrothiazol-2-yl)mercapto]imidazole]"
7,> 100 µM,"CCOC(=O)c1nc(Sc2ncc([N+](=O)[O-])s2)[nH]c1C(=O)OCC [Compound 48, 4,5-Di(ethoxycarbonyl)-2-[(5-nitrothiazol-2-yl)mercapto]imidazole]"
8,4 µM,CCCn1c(Sc2ncc([N+](=O)[O-])s2)nc2c(O)nnc(O)c21 [Compound 49]
9,> 100 µM,"Cc1ccc2nc(Sc3ncc([N+](=O)[O-])s3)[nH]c2c1 [Compound 50, 5-Methyl-2-[(5-nitrothiazol-2-yl)mercapto]benzimidazole]"
10,10.3 µM,"O=[N+]([O-])c1cnc(Sc2nc3ccc(S(=O)(=O)O)cc3[nH]2)s1 [Compound 51, 2-[(5-nitrothiazol-2-yl)mercapto]-5-sulfobenzimidazole]"
11,> 50 µM,"CC(C)n1c(Sc2ncc([N+](=O)[O-])s2)nc2cc(Cl)ccc21 [Compound 52, 5-Chloro-1-isopropyl-2-[(5-nitrothiazol-2-yl)mercapto]benzimidazole]"
12,> 25 µM,Cn1c(Sc2ncc([N+](=O)[O-])s2)nc2cc(C(F)(F)F)cnc21 [Compound 53]
13,42 µM,"O=[N+]([O-])c1cnc(Sc2nnnn2-c2ccc(F)cc2)s1 [Compound 54, 1-(4-Fuorophenyl)-5-[(5-nitrothiazol-2-yl)mercapto]tetrazole]"
14,41 µM,"O=[N+]([O-])c1cnc(Sc2nnnn2-c2ccc(O)cc2)s1 [Compound 55, 1-(4-Hydroxyphenyl)-5-[(5-nitrothiazol-2-yl)mercapto]tetrazole]"
15,27 µM,"Cn1nnnc1Sc1ncc([N+](=O)[O-])s1 [Compound 56, 1-Methyl-5-[(5-nitrothiazol-2-yl)mercapto]tetrazole]"
16,81 µM,"CCn1nnnc1Sc1ncc([N+](=O)[O-])s1 [Compound 57, 1-Ethyl-5-[(5-nitrothiazol-2-yl)mercapto]tetrazole]"
17,40 µM,"O=C(O)Cn1nnnc1Sc1ncc([N+](=O)[O-])s1 [Compound 58, 1-Carboxymethyl-5-[(5-nitrothiazol-2-yl)mercapto]tetrazole]"
18,> 100 µM,"Nc1nnc(Sc2ncc([N+](=O)[O-])s2)s1 [Compound 59, 2-Amino-5-[(5-nitrothiazol-2-yl)mercapto]-1,3,4-thiadiazole]"
19,> 100 µM,"Cc1nnc(Sc2ncc([N+](=O)[O-])s2)s1 [Compound 60, 2-Methyl-5-[(5-nitrothiazol-2-yl)mercapto]-1,3,4-thiadiazole]"
20,32 µM,"CSc1nnc(Sc2ncc([N+](=O)[O-])s2)s1 [Compound 61, 2-Methylmercapto-5-[(5-nitrothiazol-2-yl)mercapto]-1,3,4-thiadiazole]"
21,> 100 µM,"O=[N+]([O-])c1cnc(Sc2nnc(SCC3CC3)s2)s1 [Compound 62, 2-Cyclopropylmethylmercapto-5-[(5-nitrothiazol-2-yl)mercapto]-1,3,4-thiadiazole]"

# From US6080772A, “Thiazole compounds and methods of modulating signal transduction” (Sugen, Inc., priority 1997, dated 2000)
